Results taken from US9192619B2 (Peking University Third Hospital, priority 2010, dated 2015).
Where “and” joins values, the source holds several entries; their conditions need not be identical. Equal entries are not always repeated.

Tested on: permanent focal cerebral ischemia model (MCAO)
Assay: Permanent focal cerebral ischemia model by middle cerebral artery occlusion (MCAO), infarction size by TTC staining of brain slices
Assay type: in vivo, Sprague Dawley rats
Conditions: single rats, 12 h ischemia
Experimental: Experimental conditions: Sprague Dawley rats weighing about 250-300 g with a brain tissue volume of 1.5 mL were used. The subjects were divided into eight groups, and each group had eight rats. […] Efficacy validation: two hours after ECS administration and one hour after intraperitoneal injection, a permanent focal cerebral ischemia model was made by middle cerebral artery occlusion (MCAO). The brains of rats from each group were removed 12 hours after cerebral ischemia. The brain slices were obtained by cutting the brain at every 2 mm (5 slices from each rat). Then the slices were stained with 2,3,5-triphenyl-2H-tetrazolium chloride (TTC) for evaluating the cerebral infarction size and the effectiveness of administration of the drug via ECS.

## C[N+](C)(C)CCOP(=O)(O)OP(=O)([O-])OC[C@H]1O[C@@H](n2ccc(N)nc2=O)[C@H](O)[C@@H]1O [CDPC, citicoline]
CDPC 25 mM via brain ECS (caudate nucleus), 0.2 μL/min, 2 μL, MCAO 2 h after administration
  Infarction percentages: 33.7% and 5.6% and 18.6% and 34.1% and 38.1% and 42% and 24.9% and 22.8%
CDPC 40 mM via brain ECS, 0.2 μL/min, 2 μL, MCAO 2 h after administration
  Infarction percentages: 2.3% and 6.7% and 2.2% and 2.9% and 6.9% and 3.6% (2×) and 5.3%
CDPC 50 mM via brain ECS, 0.2 μL/min, 2 μL, MCAO 2 h after administration
  Infarction percentages: 1.3% and 5.7% and 3% and 1.7% and 3.7% and 4.8% and 5% and 7.3%
CDPC 60 mM via brain ECS, 0.2 μL/min, 2 μL, MCAO 2 h after administration
  Infarction percentages: 2.3% and 3.7% and 3.6% and 1.7% and 6.7% and 8.8% and 3.5% and 4.2%
CDPC 75 mM via brain ECS, 0.2 μL/min, 2 μL, MCAO 2 h after administration
  Infarction percentages: 31.2% and 35.8% and 4.0% and 37.8% and 16.1% and 29.8%
CDPC 100 mM via brain ECS, 0.2 μL/min, 2 μL, MCAO 2 h after administration
  Infarction percentages: 29.1% and 35.9% and 20.7% and 8.1% and 38.8% and 20.6% and 11.5% and 41.6%
CDPC 245 mM via brain ECS, 0.2 μL/min, 2 μL, MCAO 2 h after administration
  Infarction percentages: 24.8% and 51.2% and 14.8% and 20% and 26.7% and 18.1% and 48.3% and 33.4%
CDPC 1000 mM intraperitoneal, 1 mL (about 4 mL/kg), 1 mL/min, MCAO 1 h after administration
  Infarction percentages: 30.6% and 26.4% and 10.7% and 5.2% and 25.5% and 27.0% and 33.9% and 32.3%
